The text below walks through data of patent publication US8299049B2, “Compositions comprising an extract of Tiarella polyphylla or compounds isolated therefrom for preventing and treating cancer diseases” (Korea Institute of Bioscience and Biotechnology, priority 2007, dated 2012).

Data set [1] concerns SNU449Tp cells expressing TM4SF5. Kind of data set: Number of floating cells, SNU449Tp. The class given is cell-based. As to conditions: TA versus DMSO. An excerpt: (§1) FIG. 17 is a graph showing the number of floating SNU449Cp and SNU449Tp cells, after tiarellic acid (TA) treatment for various time periods;
The nature of data set [2]: Body weight and toxic side effects in tumor-bearing nude mice. It counts as in vivo. Conditions: 3 or 30 mg/kg i.p. every other day, 30 days. As for the experimental part:
(§2) 4-5 week old female nude mice (BALB/cAnNCrjBgi-nu) were purchased from Orient. Co. Ltd. (Seongnam, Korea). The mice were housed in a specific pathogen-free room under controlled temperature and humidity. All animal procedures were performed in accordance with the procedures in Seoul National University Laboratory Animal Maintenance Manual and with IRB agreement. Mice aged 5-6 weeks were injected subcutaneously with 5×10^6 viable SNU449Cp or SNU449T16 cells. Tumor volumes were measured with a caliper and calculated using the following Mathematical Formula 1. When the tumor volume reached 200 mm^3, mice were injected intraperitoneally with 3 mg/kg or 30 mg/kg (body weight) of tiarellic acid (TA) every other day for 30 days. (Width×Length^2)/2 [Mathematical Formula 1]
(§3) To evaluate whether tiarellic acid (TA) administration might interfere with TM4SF5 mediated tumor formation in nude mice, the following experiment was performed as described in the literature (Lee S-A et al., TM4SF5-mediated transmodulation between cytosolic p27Kip1 and Rho GTPases and epithelial-mesenchymal transition cause loss of contact inhibition, Cancer Cell, 2007).

Data set [3] deals with focal adhesion molecules in cells lacking TM4SF5. Kind of data set: Focal adhesion molecule activation in TM4SF5-null cell lines. The class given is cell-based. As to conditions: FIG. 12. As for the experimental part:
(§4) Whole cell lysates from cells under diverse experimental conditions were prepared, as described in the literature (Lee, S. Y. et al., Focal adhesion and actin organization by a cross-talk of TM4SF5 with integrin α2 are regulated by serum treatment, Exp Cell Res, 312, pp. 2983-99, 2006). For example, cells were subjected to electroporation (950 μF, 250 V) with a control GFP, wild-type focal adhesion kinase (FAK), paxillin, p130Cas cDNA. One day after electroporation, cells were treated with TA (20 μM) for the indicated periods. Cells cultured normally or treated with TA at different concentrations for the indicated periods were harvested using RIPA buffer. Control or tumor tissues from nude mice were frozen immediately after surgery using liquid N2. Tissues in the liquid N2 was homogenized using a mortar and pestle, and extracted using 0.1% SDS containing RIPA buffer. Standard Western blots of lysates were performed by using antibody against phospho-Y^397, Y^407, Y^577, Y^861, Y^925 FAK (BioSource International, Inc., Camarillo, Calif.), phospho-Y^416Src, c-Src, p15^INK4B, p16^INK4A (Santa Cruz Biotech., Santa Cruz, Calif.), FAK, p130Cas, paxillin, pY^118paxillin, active caspase-3 (BD Transduct. Lab., San Jose, Calif.), α-tubulin (Sigma, St Louis, Mo.), phopsho-S^473, or T^308Akt, Akt, phospho-Erk1/2, Erk1/2 (Cell Signaling Tech., Danvers, Mass.), and TM4SF5 (homemade).

The subject of data set [4] is SNU449Cp cells expressing no TM4SF5. The experiment in a line: Number of floating cells, SNU449Cp. The class given is cell-based. As to conditions: TA versus DMSO.
Source text: as §1

Data set [5] concerns focal adhesion kinase (FAK), paxillin, p130Cas in TM4SF5-expressing SNU449T16 cells. Kind of data set: Immunoblot of focal adhesion molecule expression and activation, SNU449T16. The class given is cell-based. The procedure: as §4
To examine which signaling molecule is affected by tiarellic acid (TA), the following procedure was performed, as described in the literature (Lee, S. Y. et al., Focal adhesion and actin organization by a cross-talk of TM4SF5 with integrin α2 are regulated by serum treatment, Exp Cell Res, 312, pp. 2983-99, 2006).
The SNU449 cell lines were treated with tiarellic acid (TA) in a dose- (0, 1, 5, 20 μM) and time-dependent (0, 8, 16, 24, 36 hrs) manner.
The SNU449Cp and SNU449T16 cell lines were treated with tiarellic acid (TA) at varying concentrations (0, 1, 5, 20 μM) for 24 hrs, and then immunoblot assay was performed.
A general note: Immunoblotting shows a protein as a band on a membrane.

The subject of another data set is TM4SF5-expressing cells. Kind of data set: Immunofluorescence of focal adhesions and actin, TM4SF5-expressing cells. The class given is cell-based. The procedure:
Cells were treated with DMSO or 20 μM TA for 24 hrs. Then, the cells were plated on 10 μg/ml fibronectin-precoated coverslips and incubated for 2 hrs in the presence of DMSO or 20 μM TA. Subsequently, immunofluorescence staining was performed using pY^397 FAK, pY^118 paxillin, and actin, as described in the literature (Lee, S. Y. et al., Focal adhesion and actin organization by a cross-talk of TM4SF5 with integrin α2 are regulated by serum treatment, Exp Cell Res, 312, pp. 2983-99, 2006). Mounted samples were visualized by a fluorescent microscope (BX51, Olympus, Japan).

Data set [6] relates to Akt, p15INK4B, p16INK4A, caspase-3 in TM4SF5-mediated tumor tissue. Kind of data set: Western blot and immunohistochemical staining of tumor tissue from nude mice. It counts as in vivo. As for the experimental part:
as §4, §2, §3

Data set [7] relates to TM4SF5-expressing SNU449Tp cells. Kind of data set: Inhibitory effect on growth of TM4SF5-expressing cell. The class given is cell-based. As for the experimental part:
After virus infection, pooled stable clones (control SNU449Cp and TM4SF5-expressing SNU449Tp cell clones) and single cell-driven stable clones (TM4SF5-expressing SNU449T16) were prepared by infecting SNU449 hepatocytes (Korean Cell Bank, Seoul, Korea) with retrovirus for empty pLNCX or pLNCX with TM4SF5. Parental and control cells (Cp) were maintained in RPMI-1640/10% FBS/0.25 μg/ml gentamycin (Calbiochem, San Diego, Calif.) without or with 200 μg/ml G418 (A.G. Scientific Inc., San Diego, Calif.), respectively, at 37° C. and 5% CO2. Cells endogenously expressing TM4SF5 or cells endogenously expressing no TM4SF5 (Korean Cell Bank) were maintained in either DMEM-H or RPMI-1640 media with 10% FBS (JBI Inc., Daegu, Korea).

Where [8] appears, read: Western blot, TA administration.

Take `C=C(C)C1CC[C@]2(C)CC[C@]3(C(=O)O)C(CCC4[C@@]5(C)CC[C@H](O)[C@@](C)(CO)C5CC[C@]43C)C12` (some centres unmarked) [tiarellic acid (TA), 3,23-dihydroxy-20(29)-lupen-27-oic acid]: the “number of floating cells” value in data set [1] is recorded as “increased”. In data set [2], the body weight result is recorded as “increased normally” and the toxic side effects entry is listed as “no significant toxic side effects”. Further, the “inhibitory effects on focal adhesion molecule activation” value in data set [3] is given as “not”. Moreover, the “number of floating cells” value in data set [4] is reported as “did not affect”. Moreover, the “p130Cas phosphorylation and physical association among FAK, p130Cas, and paxillin” value in data set [5] (FIG. 10, cell line not stated) is listed as “decreased”. In addition, the “FAK and paxillin phosphorylation and p130Cas protein levels over time” value in data set [5] (SNU449T16, 20 μM TA, 0, 8, 16, 24, 36 hrs) is on record as “remarkably decreased in a time-dependent manner”. In data set [5] (SNU449T16, 20 μM TA, 24 hrs), the “FAK and paxillin phosphorylations and p130Cas protein levels” value is given as “reduced”. For the same compound, in the data set on TM4SF5-expressing cells (20 μM TA), the focal adhesions entry is “lost”. Moreover, the “immunostaining for pY397FAK or pY118paxillin” value in the data set on TM4SF5-expressing cells (FIG. 13) was “disassembly of focal adhesion molecules was observed”. Further, the “association between integrin α5 and pY397FAK” value in the data set on TM4SF5-expressing cells (FIG. 14) is “dissociation”. In addition, the “actin organization and stress fibers” value in the data set on TM4SF5-expressing cells (FIG. 15) was “abnormal actin organization with insignificant stress fibers”. Also, in data set [6] (setting [8]), the “Akt activation in tumor tissue” value was “decreased”, the “caspase-3 activation in tumor tissue” value is “enhanced” and the “p15INK4B or p16INK4A CKI levels in tumor tissue” value is listed as “increased”. For the same compound, in data set [6] (tumor tissue from TA-treated mice), the “immunohistochemical staining for active caspase-3” value is “positive”. In data set [7] (FIG. 4, depending on concentration and time), the “number of TM4SF5-expressing cells” value was “decreased”. The “inhibitory effect on cell growth” value in data set [7] (SNU449Tp, 5 μM, 3 days) is listed as “inhibitory effect was observed”. The “cell density and cell shape” value in data set [7] (SNU449Tp, 20 μM, 3 days) is “reduced cell density and round shaped cells were observed”. For the same compound, the “inhibitory effect on the growth of TM4SF5-expressing cell” value in data set [7] (TA 0, 0.1, 5, 20 μM) is “inhibitory effect”.
